No end group written: not given here.
Experiments:
Sprague-Dawley rats [1] = experiment: Intestinal transit after alpha-helical CRF-(9-41) alone or against exogenous CRF; assay type: in vivo, rat
Protocol: (§1) Gastrointestinal transit, a measure of the propulsive motor activity of the intestine, is evaluated by the geometric center method (Miller et al., 1981, J. Pharmacol. Methods 6:211-217), in which a nonabsorable radioactive marker, ^51 Cr (0.2 ml) as sodium chromate in distilled water, is instilled directly into the proximal duodenum and proximal colon via Silastic cannulas surgically implanted under Equithesin anesthesia 3-5 days earlier. Thirty-five minutes after administration of the chromium, the animals are killed, and the stomach and intestine are removed and counted for gamma radiation. Gastric emptying is evaluated by quantitating the percent radioactivity emptied from the stomach in a 15 minute period. Radiochromium in distilled water (0.2 ml) is administered by oral gavage, and the animals are killed and emptying assessed 15 minutes later. CRF or vehicle is administered intravenously or intracerebroventricularly immediately before ^51 Cr.
Since CRF is likely to play an essential role in initiating both endocrine and autonomic responses to stress, it is probable that CRF mediates the effects of stress on the gut and that blockade of CRF receptors would lessen stress-induced disordered transit. […] The antagonist, alpha-helical CRF-[…] (50 ug, i.v. or i.c.v.), has no effect on small or larger intestinal transit itself when administered into the brain or the bloodstream.

Sprague-Dawley rats [2] = experiment: Wrap-restraint stress-induced intestinal dysfunction, antagonist pretreatment; assay type: in vivo, rat
Protocol: as §1
Wrapping-restraint stress, a relatively mild, nonulcerogenic model of restraint is used in all stress studies. Stressed animals are lightly anesthetized with ether, and their trunk, shoulders, and upper forelimbs are wrapped in a confining harness of masking tape. Control animals are lightly ether anesthetized but are not wrapped. Radiochromium is then administered, and the animals are killed 35 minutes later to assess intestinal transit. All stress experiments are performed in the late afternoon (4:00 to 7:00 PM) due to a strong circadian influence on the degree of intestinal dysfunction associated with stress at different times of the day. […]

pituitary ACTH release = settings: Rivier et al., 1984, cited from earlier work
plasma ACTH = experiment: Plasma ACTH concentrations by radioimmunoassay after CRF; assay type: in vivo, rat; settings: CRF 0.3 ug i.v.; for Plasma ACTH Concentration: mean ± SE
Protocol: CRF and alpha-helical CRF-(9-41) are purchased from Bachem. Drugs are diluted in distilled water, and NaOH (0.1 N) added to the solution, 1 ul at a time, until the compounds [CRF and alpha-helical CRF-(9-41)]go into solution, at a pH of ~6.8. The solutions are aliquotted into 25- and 50-ug supplies, lyophilized, and stored in a desiccator at 4°-8° C. until needed. Radioimmunoassay kits for determination of plasma levels of ACTH are purchased from ImmunoNuclear.
The following example compares the endocrine response to a low dose of exogenous CRF (0.3 ug i.v.) and to stress-induced release of endogenous CRF by measuring plasma ACTH concentrations by radioimmunoassay in animals that are wrap restrained or treated with CRF.
Blood is drawn from an indwelling jugular cannula, surgically placed under Equithesin anesthesia 3 days earlier. Blood (0.2 ml) is drawn 10 minutes before treatment, as well as 5, 10, 20, 30, 45, and 60 minutes after CRF administration or wrap-restraint stress. Blood is also drawn at the same time points from control animals are briefly ether anesthetized but which are not stressed or drug treated.

Sprague-Dawley rats [3] = experiment: Small and large intestinal transit (geometric center method) and fecal output after exogenous CRF; assay type: in vivo, rat
Protocol: as §1, with “Female Sprague-Dawley rats (150-200 g) are used in all tests described herein. The animals are housed in groups of five in a temperature-controlled room on a 12 hour light-dark cycle (7:00 AM to 7:00 PM) and are allowed water and rat chow ad libitum. Animals are allowed at least one week to recover from shipping before experiments are performed. Gastrointestinal” for “Gastrointestinal”

Sprague-Dawley rats [4] = experiment: Gastric emptying of 51Cr after exogenous CRF; assay type: in vivo, rat; settings: CRF 1.0 to 10.0 ug i.v. or i.c.v.; FIG. 1A
Protocol: as §1, with “Female Sprague-Dawley rats (150-200 g) are used in all tests described herein. The animals are housed in groups of five in a temperature-controlled room on a 12 hour light-dark cycle (7:00 AM to 7:00 PM) and are allowed water and rat chow ad libitum. Animals are allowed at least one week to recover from shipping before experiments are performed. Gastrointestinal” for “Gastrointestinal”

[5] = antagonist 50 ug i.v. or i.c.v., CRF 3 and 10 ug i.v. or i.c.v., same route

alpha-helical CRF-(9-41)
Large intestinal transit, antagonist alone (Sprague-Dawley rats [1]; 50 ug, i.v. or i.c.v.): has no effect | Small intestinal transit, antagonist alone (Sprague-Dawley rats [1]; 50 ug, i.v. or i.c.v.): has no effect | Effects of exogenous CRF on large intestinal transit (Sprague-Dawley rats [1]; [5]): effectively antagonizes | Effects of exogenous CRF on small intestinal transit (Sprague-Dawley rats [1]; [5]): effectively antagonizes | Stress-induced inhibition of small intestinal transit (Sprague-Dawley rats [2]; 50 ug i.c.v. or i.v. immediately before stress, FIG. 3A): did not affect | Stress-induced increase in large intestinal transit (Sprague-Dawley rats [2]; 50 ug i.c.v. or i.v. immediately before stress, FIG. 3B): completely blocked | Stress-induced increase in fecal pellet output (Sprague-Dawley rats [2]; 50 ug i.c.v. or i.v. immediately before stress, FIG. 3C): significantly diminished | Stress-induced increase in colonic transit, higher dose versus 50 ug (Sprague-Dawley rats [2]; 100 μg i.c.v.): did not result in a further decrease | Stress-induced increase in fecal excretion, higher dose versus 50 ug (Sprague-Dawley rats [2]; 100 μg i.c.v.): did not result in a further decrease | Stress-induced inhibition of small intestinal transit (Sprague-Dawley rats [2]; 100 μg i.c.v.): did not affect | Agonist activity (pituitary ACTH release): little agonist activity | Effects of CRF and stress on pituitary ACTH release (pituitary ACTH release; both in vivo and in vitro): effectively antagonizes

Corticotropin-releasing factor (SQEPPISLDLTFHLLREVLEMTKADQLAQQAHSNRKLLDIA; ends and bridges not checked; UniProt P01142 148-188, looked up) [CRF, peptide comprising 41 amino acid residues, first characterized from ovine hypothalamic extracts; purchased from Bachem]
Peak levels of ACTH compared with wrap-restraint stress (plasma ACTH): very similar | Time course of ACTH release compared with stress-induced ACTH release (plasma ACTH): more rapid time course | Plasma ACTH Concentration (plasma ACTH; 5 minutes after administration): 619 ± 70 pg/mL | Plasma ACTH Concentration (plasma ACTH; 10 minutes after administration): 494 ± 108 pg/mL | Plasma ACTH Concentration (plasma ACTH; 20 minutes after administration): 265 ± 93 pg/mL | Plasma ACTH Concentration (plasma ACTH; 30 minutes after administration): 174 ± 24 pg/mL | Plasma ACTH Concentration (plasma ACTH; 45 minutes after administration): 146 ± 33 pg/mL | Plasma ACTH Concentration (plasma ACTH; 60 minutes after administration): 141 ± 49 pg/mL | Plasma ACTH Concentration (plasma ACTH; time head +10 (10 minutes before treatment)): 64 ± 4 pg/mL | Response of the gut to CRF compared with restraint stress (Sprague-Dawley rats [3]; CRF 0.3 ug i.c.v., gastric emptying, small and large intestinal transit, fecal pellet output, FIG. 2): identical both in direction and degree | Fecal pellet output (Sprague-Dawley rats [3]; CRF 0.3 to 10.0 ug): increased | Small intestinal transit (Sprague-Dawley rats [3]; CRF 0.3 to 10.0 ug i.v. or i.c.v., FIG. 1B): inhibits | Colonic transit (Sprague-Dawley rats [3]; CRF 0.3 to 10.0 ug i.v. or i.c.v., FIG. 1C): increases | Diarrhea (Sprague-Dawley rats [3]; CRF at higher doses): diarrhea | Lowest effective dose (Sprague-Dawley rats [3]; i.c.v., gastric and intestinal effects): 0.3 µg | Effectiveness of i.v. versus i.c.v. administration (Sprague-Dawley rats [3]; intravenously versus intracerebroventricularly administered CRF): equally effective | Gastric emptying (Sprague-Dawley rats [4]): inhibited in a dose-dependent manner

From patent US5236901A, “Treatment for irritable bowel syndrome” (Research Corporation Technologies, Inc., priority 1991, dated 1993)
